Several values for one entry are separate records, joined by “and”; a condition that tells them apart may be missing. Equal entries are not always repeated. After the bases stand the sugars from the 5' end (letter, count) and the backbone: PS all phosphorothioate, else s phosphorothioate and o phosphodiester by linkage. Methylation of C is not given here. e = 2'-O-(2-methoxyethyl) (MOE); k = constrained ethyl (cEt); d = 2'-deoxy (DNA)

The target in the first data set is IRF4. The following applies: ASO, MM.1R, 0.0625 µM.
With AATGGATAGTTTCTCA (sugars k3 d10 k3, PS), the target mRNA inhibition was -2% and -14%.

Regarding ACACTTTTAGAGAGGA (sugars k3 d10 k3, PS), the target mRNA inhibition is 32%.

Consider “ACGTGTGCTTGCCAAG (sugars kkdddddddddkdkdk, PS)”, for which the target mRNA inhibition is 15%.

The data set is the same for the next values; noted with them: ASO, MM.1R, 0.074 µM.
With AATGGATAGTTTCTCA (sugars k3 d10 k3, PS), the target mRNA inhibition turned out to be 11%.

The data set is the same for the next values; noted with them: ASO, MM.1R, 0.222 µM.
With AATGGATAGTTTCTCA (sugars k3 d10 k3, PS), the target mRNA inhibition came out at 8%.

As for ACACTTTTAGAGAGGA (sugars k3 d10 k3, PS), the target mRNA inhibition is 25% and 41%.

The data set is the same for the next values; noted with them: ASO, MM.1R, 0.25 µM.
Take AATGGATAGTTTCTCA (sugars k3 d10 k3, PS): the target mRNA inhibition was 6% and 5%.

In the case of ACACTTTTAGAGAGGA (sugars k3 d10 k3, PS), the target mRNA inhibition was found to be 41%.

Turning to “ACGTGTGCTTGCCAAG (sugars kkdddddddddkdkdk, PS)”, the target mRNA inhibition amounted to 43%.

The data set is the same for the next values; noted with them: ASO, MM.1R, 0.666 µM.
On to AATGGATAGTTTCTCA (sugars k3 d10 k3, PS), for which the target mRNA inhibition stood at 23%.

The data set is the same for the next values; noted with them: ASO, MM.1R, 1 µM.
As for AACGCAAGTCTGAATT (sugars k3 d10 k3, PS), the target mRNA inhibition was 3%.

“AAGCAGTGATGTCAGG (sugars kddddddddddkekek, PS)”: the target mRNA inhibition was 28% and 39%.

In the case of AAGCATTTTATCATCC (sugars k3 d10 k3, PS), the target mRNA inhibition turned out to be 25%.

On to “AAGCATTTTATCATCC (sugars kkdddddddddekeke, PS)”, for which the target mRNA inhibition turned out to be 25%.

Take “AAGCATTTTATCATCC (sugars kkdddddddddkekek, PS)”: the target mRNA inhibition is 18%.

With “AAGCTTGATAAAGGCT (sugars kkddddddddddkeke, PS)”, the target mRNA inhibition is -18%.

Turning to “AAGCTTGATAAAGGCT (sugars kkkdddddddddkeke, PS)”, the target mRNA inhibition was -18%.

Take “AAGTGTCTAAAGTCCC (sugars kkddddddddddkeke, PS)”: the target mRNA inhibition was 10% and 12%.

With “AAGTTCATGTAAAGTC (sugars kddddddddddkekek, PS)”, the target mRNA inhibition is 14% and 6%.

Regarding “AAGTTCATGTAAAGTC (sugars kkddddddddddkeke, PS)”, the target mRNA inhibition is 28% and 20%.

Take AAGTTCTAGTCGCGCA (sugars k3 d10 k3, PS): the target mRNA inhibition is 11%.

With AATGGATAGTTTCTCA (sugars k3 d10 k3, PS), the target mRNA inhibition was 21% and 36%.

As to AATGGCGGATAGATCT (sugars k3 d10 k3, PS), the target mRNA inhibition was 10% and 25%.

Take “AATGTGTATTACTCTT (sugars kkdddddddddkekek, PS)”: the target mRNA inhibition was 52% and 41%.

For AATTCCTCCACTACCA (sugars k3 d10 k3, PS), the target mRNA inhibition was -41%.

As to ACACGCCCGACCCTCC (sugars k3 d10 k3, PS), the target mRNA inhibition amounted to 4%.

On to “ACACTTTTAGAGAGGA (sugars kkdddddddddkdkdk, PS)”, for which the target mRNA inhibition worked out at 3%.

Regarding “ACACTTTTAGAGAGGA (sugars kkdddddddddkekek, PS)”, the target mRNA inhibition was 27%.

Regarding ACAGAGACGCGGTGAG (sugars k3 d10 k3, PS), the target mRNA inhibition was 14%.

As to “ACAGTGACTTGCATCC (sugars k2 d9 e3 k2, PS)”, the target mRNA inhibition turned out to be 27%.

Take ACAGTGACTTGCATCC (sugars k3 d10 k3, PS): the target mRNA inhibition worked out at 34%.

Consider “ACAGTGACTTGCATCC (sugars kddddddddddkekek, PS)”, for which the target mRNA inhibition is -5%.

As to “ACAGTGACTTGCATCC (sugars kdddddddddkekeke, PS)”, the target mRNA inhibition was 6%.

In the case of ACCAAAAGTACCACAG (sugars k3 d10 k3, PS), the target mRNA inhibition is -8%.

On to ACCGCATTGCTAGATT (sugars k3 d10 k3, PS), for which the target mRNA inhibition worked out at 27%.

As for ACCTAACTAAATGTCA (sugars k3 d10 k3, PS), the target mRNA inhibition was -24%.

With ACCTTCGCGGCCGGCC (sugars k3 d10 k3, PS), the target mRNA inhibition is -42%.

As for ACGAAGGGCAGTGCCT (sugars k3 d10 k3, PS), the target mRNA inhibition was -5%.

As for “ACGGAAGTTTACACTG (sugars kddddddddddkekek, PS)”, the target mRNA inhibition was 7%.

Consider “ACGGAAGTTTACACTG (sugars kkdddddddddkekek, PS)”, for which the target mRNA inhibition came out at 21%.

As for ACGGAGGCGGCAGACG (sugars k3 d10 k3, PS), the target mRNA inhibition is -9%.

“ACGTGTGCTTGCCAAG (sugars kdddddddddkekeke, PS)”: the target mRNA inhibition is 40% and 35%.

Consider “ACGTGTGCTTGCCAAG (sugars kkdddddddddkdkdk, PS)”, for which the target mRNA inhibition is 75% and 66% and 56%.

Regarding ACTAACAGGGAGACTG (sugars k3 d10 k3, PS), the target mRNA inhibition was -19%.

Consider ACTAAGCTTGATAAAG (sugars k3 d10 k3, PS), for which the target mRNA inhibition is 14% and 5%.

Still in this data set, the particulars now being: ASO, MM.1R, 2 µM.
For the sequence AATGGATAGTTTCTCA (sugars k3 d10 k3, PS), the target mRNA inhibition turned out to be 45%.

For the sequence ACACTTTTAGAGAGGA (sugars k3 d10 k3, PS), the target mRNA inhibition is 72% and 89%.

The data set is the same for the next values; noted with them: ASO, MM.1R, 4 µM.
Turning to AATGGATAGTTTCTCA (sugars k3 d10 k3, PS), the target mRNA inhibition was 45% and 50%.

In the case of ACACTTTTAGAGAGGA (sugars k3 d10 k3, PS), the target mRNA inhibition was 74%.

Consider “ACGTGTGCTTGCCAAG (sugars kkdddddddddkdkdk, PS)”, for which the target mRNA inhibition turned out to be 77%.

Staying with this data set, now noted: ASO, SK-MEL-28, 4 µM.
On to AACAGGCTATCAGGAT (sugars k3 d10 k3, PS), for which the target mRNA inhibition worked out at 17%.

Consider AACAGTAAGAGGGCAG (sugars k3 d10 k3, PS), for which the target mRNA inhibition came to 63%.

Turning to AACCAATCCCAACACT (sugars k3 d10 k3, PS), the target mRNA inhibition stood at 12%.

AACCAGTACAGTCCAC (sugars k3 d10 k3, PS): the target mRNA inhibition turned out to be 35%.

For the sequence AACGAGGTAAATCTTC (sugars k3 d10 k3, PS), the target mRNA inhibition was found to be 51%.

For AACTATCTTATTCCTC (sugars k3 d10 k3, PS), the target mRNA inhibition is 30%.

Consider AACTCATAGGTGTACA (sugars k3 d10 k3, PS), for which the target mRNA inhibition amounted to 61%.

AACTCTGAGTAGACTT (sugars k3 d10 k3, PS): the target mRNA inhibition was determined as 28%.

In the case of AAGAACTGCTGTGTGT (sugars k3 d10 k3, PS), the target mRNA inhibition turned out to be 12%.

AAGACCCCGTATCCCC (sugars k3 d10 k3, PS): the target mRNA inhibition amounted to 42%.

In the case of AAGAGGTGCGAGTACC (sugars k3 d10 k3, PS), the target mRNA inhibition turned out to be 34%.

With AAGCAACACGGGAATT (sugars k3 d10 k3, PS), the target mRNA inhibition amounted to 22%.

Take AAGCCGTTCCTTTTCA (sugars k3 d10 k3, PS): the target mRNA inhibition worked out at 29%.

On to AAGCTAAACTCCTAAG (sugars k3 d10 k3, PS), for which the target mRNA inhibition was found to be 15%.

On to AAGGAGGCGGGCCTTG (sugars k3 d10 k3, PS), for which the target mRNA inhibition worked out at 2%.

In the case of AAGGATGGGACCGCCC (sugars k3 d10 k3, PS), the target mRNA inhibition is 39%.

For the sequence AAGTAACTGACACGCA (sugars k3 d10 k3, PS), the target mRNA inhibition amounted to 23%.

As to AAGTACTTGGACAGAA (sugars k3 d10 k3, PS), the target mRNA inhibition was 54%.

Turning to AAGTCATTGCTCTTGT (sugars k3 d10 k3, PS), the target mRNA inhibition was 28%.

On to AATAAGCAGAAACAGC (sugars k4 d8 k4, PS), for which the target mRNA inhibition stood at 39%.

Regarding AATCAGAATGGCGAGT (sugars k3 d10 k3, PS), the target mRNA inhibition came to 39%.

As for AATGGATAGTTTCTCA (sugars k3 d10 k3, PS), the target mRNA inhibition amounted to 63%.

Regarding AATGTAAGTGATAGGT (sugars k3 d10 k3, PS), the target mRNA inhibition amounted to 80%.

For AATTCTCCTATGCTGA (sugars k3 d10 k3, PS), the target mRNA inhibition was determined as 13%.

With ACAAAATGGTGTGTAA (sugars k3 d10 k3, PS), the target mRNA inhibition was determined as 7%.

In the case of ACAAGAACTGCTGTGT (sugars k3 d10 k3, PS), the target mRNA inhibition is 7%.

For the sequence ACAAGTGCTAGGATTC (sugars k3 d10 k3, PS), the target mRNA inhibition amounted to 67%.

ACACACATTAAAGGGT (sugars k3 d10 k3, PS): the target mRNA inhibition worked out at 43%.

On to ACACACATTTGAGAGC (sugars k3 d10 k3, PS), for which the target mRNA inhibition was 66%.

On to ACACAGTCTGCTGCCC (sugars k3 d10 k3, PS), for which the target mRNA inhibition amounted to 51%.

For the sequence ACACATCACTTGGTCA (sugars k3 d10 k3, PS), the target mRNA inhibition is 78%.

Turning to ACACTGGATCTGAATT (sugars k3 d10 k3, PS), the target mRNA inhibition came to 46%.

In the case of ACACTTTTAGAGAGGA (sugars k3 d10 k3, PS), the target mRNA inhibition is 63%.

Turning to ACAGAAGATCTCTACT (sugars k3 d10 k3, PS), the target mRNA inhibition was 32%.

In the case of ACAGATAACGAGGTGC (sugars k3 d10 k3, PS), the target mRNA inhibition worked out at 30%.

Regarding ACAGATAGTTAAGTAC (sugars k3 d10 k3, PS), the target mRNA inhibition came to 35%.

As for ACAGCATAGCATTATC (sugars k3 d10 k3, PS), the target mRNA inhibition came out at 64%.

Turning to ACAGGACCTGGTCCAG (sugars k3 d10 k3, PS), the target mRNA inhibition came to 35%.

On to ACAGGGTGCTCCTGAG (sugars k3 d10 k3, PS), for which the target mRNA inhibition came to 23%.

In the case of ACATATCCATGTTGCA (sugars k3 d10 k3, PS), the target mRNA inhibition turned out to be 79%.

As to ACATGGCAGTGGAGCT (sugars k3 d10 k3, PS), the target mRNA inhibition was determined as 64%.

Consider ACATTACTGAGATATC (sugars k3 d10 k3, PS), for which the target mRNA inhibition came out at 16%.

ACCAGAACTAATGTCC (sugars k3 d10 k3, PS): the target mRNA inhibition amounted to 32%.

Consider ACCCACACAAGTCTTA (sugars k3 d10 k3, PS), for which the target mRNA inhibition was -4%.

In the case of ACCCACGGACGGAGGC (sugars k3 d10 k3, PS), the target mRNA inhibition is -9%.

As to ACCTACAAGCAGTCAT (sugars k3 d10 k3, PS), the target mRNA inhibition is 46%.

Turning to ACCTGCTGGCAGTTCT (sugars k3 d10 k3, PS), the target mRNA inhibition was determined as 61%.

For ACCTTTTTTGGCTCCC (sugars k4 d8 k4, PS), the target mRNA inhibition came out at 19%.

With ACGACAGCATAGCATT (sugars k3 d10 k3, PS), the target mRNA inhibition turned out to be 67%.

With ACGCAAGTCTGAATTT (sugars k3 d10 k3, PS), the target mRNA inhibition is 65%.

Turning to ACGCACACACAAGTGG (sugars k3 d10 k3, PS), the target mRNA inhibition turned out to be 59%.

Regarding ACTAATACCTACCTGC (sugars k3 d10 k3, PS), the target mRNA inhibition was 48%.

In the case of ACTACTATTGTGGAAA (sugars k3 d10 k3, PS), the target mRNA inhibition was 18%.

As for ACTCACTGGTTCTGAA (sugars k3 d10 k3, PS), the target mRNA inhibition is 14%.

These data come from the OligoGym collection.
